Results published in patent US10513514B2, “Piperidine compounds as PCSK9 inhibitors” (SHENZHEN SALUBRIS PHARM CO LTD, priority 2017, dated 2019).

Columns and labels:
PCSK9 = PCSK9 (Homo sapiens (Human), UniProt Q8NBP7); assay: In vitro screening experiment (AlphaLISA anti-PCSK9, PCSK9-Huh7 cells); format: cell-based; details: 20 h incubation, AlphaLISA reading
Experimental: 1) Preparation of 1× AlphaLISA test buffer solution:
2.5 ml of 10× AlphaLISA test buffer solution was added to 22.5 ml of Milli-Q water to produce the 1× AlphaLISA test buffer solution.
50 μL of 5 mg/mL Alpha LISA Anti-PCSK9 Acceptor beads and 50 μL of 500 nM Biotinylated Antibody Anti-PCSK9 were added to 9,900 μL of 1× AlphaLISA test buffer solution.
3) Preparation of 2× Streptavidin (SA) Donor beads (80 μg/mL):
200 μL of 5 mg/mL SA-Donor beads was added to 12,300 μL of 1× AlphaLISA test buffer solution.
3) 20 μL/pore mixture of 2.5× AlphaLISA Acceptor beads and Biotinylated Antibody Anti-PCSK9 was added, and incubated at 23° C. for 60 min.
4) 25 μL/pore 2× Streptavidin (SA) Donor beads were added; and incubated for 30 min at 23° C. (kept in dark place).
5) EnVision-Alpha Reader reading:
Date was analyzed with Prismsoftware (nonlinear regression (Sigmoidal dose-response-variable slope) Inhibition ratio %=100*(Sample reading−LC reading)/(HC reading−LC reading) Computational formula: […]

[1] = Research of pharmacokinetic properties in SD rats (bioavailability); format: in vivo; details: male SD rats; 1 mg/kg intravenous injection, 5 mg/kg by gavage
Experimental: Research of Pharmacokinetic Properties in SD Rats
This example was intended to evaluate the PK properties of test compound, and calculate the bioavailability in male SD rats. Each test compound used six male SD rats, Six male SD rats were randomly divided into two groups. Three rats were respectively administrated with the dose of 1 mg/kg by intravenous injection; the whole blood was collected at 0.0833, 0.25, 0.5, 1, 2, 4, 6, 8 and 24 h after administration and plasma samples were prepared. The other three rats were respectively administrated with the dose of 5 mg/kg by gavage, the whole blood was collected at 0.25, 0.5, 1, 2, 4, 6, 8 and 24 h after administration, and plasma samples were prepared. the concentration of the test compound in the plasma was tested by LC/MS/MS method, and relevant PK parameters was calculated with Phoenix WinNonlin 6.2.1.
For the bioavailability data, see table 2.

Row | IC50 (PCSK9) [µM] | F in rats (%) [1] [%] | SMILES
1 | < 10 | – | Cc1cc(F)cnc1N(C(=O)c1ccc(C2=NOC(C)(C)C2=O)cc1)[C@@H]1CCCNC1 [WX008]
2 | < 10 | – | CC1(C)ON=C(c2ccc(C(=O)N(c3ncccc3-c3ccncc3)[C@@H]3CCCNC3)cc2)C1=O [WX037]
3 | < 10 | 37.7 | Cc1cc(C2=NOC(C)(C)C2=O)ccc1C(=O)N(c1ncccc1Cl)[C@@H]1CCCNC1 [WX021]
4 | < 10 | – | Cc1cnc(N(C(=O)c2ccc(C3=NOC(C)(C)C3=O)cc2)[C@@H]2CCCNC2)c(C)c1 [WX012]
5 | < 10 | – | Cc1cc(C(=O)N(c2ncccc2C)[C@@H]2CCCNC2)ccc1C1=NOC(C)(C)C1=O [WX024]
6 | < 10 | – | Cc1cccnc1N(C(=O)c1ccc(C2=NOC(C)(C)C2O)cc1)[C@@H]1CCCNC1 (stereo partly drawn) [WX025]
7 | < 10 | 56.3 | CO/N=C1/C(c2ccc(C(=O)N(c3ncccc3C)[C@@H]3CCCNC3)cc2)=NOC1(C)C [WX040]
8 | < 10 | – | Cc1cc(Cl)cnc1N(C(=O)c1ccc(C2=NOC(C)(C)C2=O)cc1)[C@@H]1CCCNC1 [WX011]
9 | < 10 | – | COCc1cccnc1N(C(=O)c1ccc(C2=NOC(C)(C)C2=O)cc1)[C@@H]1CCCNC1 [WX041]
10 | < 10 | – | Cc1cc(C2=NOC(C)(C)C2=O)ccc1C(=O)N(c1ncccc1C)[C@@H]1CCCNC1 [WX023]
11 | < 10 | – | COc1cccnc1N(C(=O)c1ccc(C2=NOC(C)(C)C2=O)cc1)[C@@H]1CCCNC1 [WX009]
12 | < 10 | – | CC1(C)ON=C(c2ccc(C(=O)N(c3ccccn3)[C@@H]3CCCNC3)cc2)C1=O [WX006]
13 | < 10 | 58.8 | Cc1cccnc1N(C(=O)c1ccc(C2=NOC(C)(C)C2=O)cc1F)[C@@H]1CCCNC1 [WX027]
14 | – | 20 | O=C(c1ccc(-n2nnc3cccnc32)cc1)N(c1ncccc1Cl)[C@@H]1CCCNC1 [PF-06446846, reference compound]
15 | < 10 | – | Cc1cccnc1N(C(=O)c1ccc(C2=NOC(C)(C)/C2=N\O)cc1)[C@@H]1CCCNC1 [WX039]
16 | < 10 | – | CC1(C)ON=C(c2ccc(C(=O)N(c3ncccc3F)[C@@H]3CCCNC3)cc2)C1=O [WX013]
17 | < 10 | – | CC1(C)ON=C(c2ccc(C(=O)N(c3ncccc3-c3ccccc3)[C@@H]3CCCNC3)cc2)C1=O [WX038]
18 | < 10 | 68.0 | Cc1cccnc1N(C(=O)c1ccc(C2=NOC(C)(C)C2=O)cc1)[C@@H]1CCCNC1 [WX002]
19 | < 10 | – | Cc1cc(C(=O)N(c2ncccc2Cl)[C@@H]2CCCNC2)ccc1C1=NOC(C)(C)C1=O [WX022]
20 | < 10 | – | CC1(C)ON=C(c2ccc(C(=O)N(c3nccc4c3COC4)[C@@H]3CCCNC3)cc2)C1=O [WX026]
21 | < 10 | – | Cc1ccnc(N(C(=O)c2ccc(C3=NOC(C)(C)C3=O)cc2)[C@@H]2CCCNC2)c1Cl [WX015]

Row | SMILES | IC50 (PCSK9) [µM] | F in rats (%) [1] [%]
22 | CC1(C)ON=C(c2ccc(C(=O)N(c3ncccc3Cl)[C@@H]3CCCNC3)cc2)C1=O [WX001] | < 10 | 83.9
